Source: ChEMBL document CHEMBL4842359, “1,3-Diarylpyrazolyl-acylsulfonamides as Potent Anti-tuberculosis Agents Targeting Cell Wall Biosynthesis in Mycobacterium tuberculosis” (J Med Chem, 2021)
In brackets after ≈: the same amount, converted by molar mass.

How the values were obtained:
Assay in all cases: microbe, parasite or virus in culture
[1] = tested on: Mycobacterium tuberculosis; details: 336 h
[2] = tested on: Mycobacterium tuberculosis; details: R88
[3] = tested on: Mycobacterium tuberculosis; details: MD96
[4] = tested on: Mycobacterium tuberculosis; details: MD55
[5] = tested on: Mycobacterium tuberculosis; details: R3027
[6] = tested on: Mycobacterium tuberculosis; details: R296

Structure (SMILES) | MIC [1] [µM] | further results
CS(=O)(=O)NC(=O)NCc1cn(-c2ccc(Cl)cc2)nc1-c1ccncc1 | < 0.12 | –
CS(=O)(=O)NC(=O)CCc1cn(-c2ccc(Br)cc2)nc1-c1ccncc1 | – | MIC [2]: 30 µM (≈ 13.5 µg/mL); MIC [3]: ≤ 30 µM; MIC [4]: 60 µM (≈ 27 µg/mL); MIC [5]: 60 µM (≈ 27 µg/mL); MIC [6]: 60 µM (≈ 27 µg/mL)
CS(=O)(=O)NC(=O)NCc1cc(-c2ccc(Br)cc2)oc1-c1ccncc1 | < 0.13 | –
CS(=O)(=O)NC(=O)CCc1cn(-c2ccc(Cl)cc2)nc1-c1ccc(Cl)cc1 | 0.24 (≈ 0.105 µg/mL) | –
CS(=O)(=O)NC(=O)CCc1cn(-c2ccc(Br)cc2)nc1-c1ccc(Cl)cc1 | 0.4 (≈ 0.193 µg/mL) | –
NNC(=O)c1ccncc1 [ISONIAZID] | 31.2 (≈ 4.28 µg/mL) | –
CO[C@H]1/C=C/O[C@@]2(C)Oc3c(C)c(O)c4c(O)c(c(/C=N/N5CCN(C)CC5)c(O)c4c3C2=O)NC(=O)/C(C)=C\C=C\[C@H](C)[C@H](O)[C@@H](C)[C@@H](O)[C@@H](C)[C@H](OC(C)=O)[C@@H]1C [RIFAMPIN] | 0.001 (≈ 0.000823 µg/mL) | –
